Source: patent US9271993B2, “Treatment of bacterial infectious diseases” (priority 2010, dated 2016)
≈ marks a conversion by molar mass, not a printed value. Where two headings read alike, the source gives them in different places.

Tests used:
[1] = test system: clinical methicillin resistant Staphylococcus aureus (MRSA) isolates; experiment: MIC against clinical MRSA isolates, LB microdilution assay; conditions: Staphylococcus aureus, MRSA
Experimental: Activity was assessed by determination of minimal inhibitory concentrations (MIC), as described in Pfister et al., Antimicrob. […] Cultures from single colonies were grown in LB medium and used for MIC tests in a microtiter plate format. Starting cultures contained 200 μl of bacterial cells at an optical density of 0.025 at 600 nm, and the respective drug was added in twofold series of dilution.

E. coli = experiment: MIC against gram-negative bacteria; format: cell-based; conditions: Escherichia coli, read-out: MIC
Source text: Agents Chemother. 2003, 47:1496-1502.

cytohybrid ribosomes = experiment: Ribosomal drug susceptibility (MIC) of recombinant bacteria; set-up: MIC, cytohybrid ribosomes: unit not given beside the values; conditions: for MIC, cytohybrid ribosomes: Table 7, 72 h incubation
mitohybrid ribosomes = experiment: as above; set-up: MIC, mitohybrid ribosomes: unit not given beside the values; conditions: for MIC, mitohybrid ribosomes: Table 7, 72 h incubation
M. massiliense = experiment: MIC against non-tuberculous rapidly-growing mycobacteria, microdilution; format: cell-based; conditions: Mycobacteroides abscessus, read-out: minimal inhibitory concentration (MIC)
Experimental: (§1) Activity of apramycin was assessed in standard microdilution assays and is expressed as minimal inhibitory concentration (MIC) in μg/ml.

M. bolletii = experiment: as above; format: cell-based; conditions: Mycobacteroides abscessus, read-out: minimal inhibitory concentration (MIC)
Experimental: as §1

M. abscessus = experiment: as above; format: cell-based; conditions: Mycobacteroides abscessus; strain 500039/08 M. abscessus; read-out: minimal inhibitory concentration (MIC)
Experimental: as §1

bacterial ribosomes = experiment: Ribosomal drug susceptibility (MIC) of recombinant bacteria; set-up: MIC, bacterial ribosomes: unit not given beside the values; conditions: for MIC, bacterial ribosomes: Table 7, 72 h incubation
[2] = guinea pig
Source text: “Treshold shift” is the difference in auditory threshold before and three weeks after treatment.
Guinea pigs received a systemic application of aminoglycosides once daily in the dosing indicated for 14 days, and were allowed to rest for 14 days before post-treatment ABR was taken.

M. kansasii = experiment: Drug susceptibility of non-tuberculous slow-growing mycobacteria, MGIT960; format: cell-based
[3] = General toxicity in guinea pigs; format: in vivo; conditions: for observations (general toxicity): once daily for 14 days, monitored additional 14 days
Source text: Guinea pigs received a systemic application of aminoglycosides once daily in the dosing indicated in Table 9 for 14 days and were then monitored for an additional 14 days.

[4] = test system: Cochlear explants from newborn mice; experiment: Cochleatoxicity in vitro, hair cell loss in cochlear explants; format: cell-based
Experimental: FIG. 1: Cochleatoxicity in vitro
(a) Dose-response relationship of drug-induced hair cell loss in cochlear explants. Hair cell loss was quantified along the entire length of the explant and plotted against drug concentration. %=% outer hair cells missing.
Cochlear explants from newborn mice were treated with 0.5 mM aminoglycoside compound for 24 h; subsequently hair cell damage was assessed by epifluorescence microscopy.

M. avium-intracellulare = experiment: Drug susceptibility of non-tuberculous slow-growing mycobacteria, MGIT960; format: cell-based
[5] = MRSA AG042, strain 101-06R Gm^R
[6] = E. coli AG01, clin. isol. (Gm^S)
[7] = E. coli AG02, clin. isol (Gm^S)
[8] = E. coli AG03, clin. isol (Gm^R)
[9] = E. coli AG07, BM13/pIP135, resistance mechanism AAC(3)
[10] = E. coli AG08, BM13/pIP055, resistance mechanism ANT(2″)
[11] = E. coli AG09, AAC(6′)-1B, resistance mechanism AAC(6′)
[12] = E. coli AG36, HB101/pAT197, resistance mechanism ANT(4′)
[13] = E. coli AG37, HB101/pAG21-1, resistance mechanism APH(3′)
[14] = strain 177217/10 M. massiliense
[15] = strain 186139/07 M. massiliense
[16] = strain 500044/09 M. massiliense

SMILES: NC[C@H]1O[C@H](O[C@H]2[C@H](O)[C@@H](O[C@H]3O[C@H](CO)[C@@H](O)[C@H](N)[C@H]3O)[C@H](N)C[C@@H]2N)[C@H](N)C[C@@H]1O [Tobramycin]
- MIC [1]: 128 to 256 µg/mL (≈ 274 to 548 µM)
- MIC ([1]; MRSA AG038, strain 70-26S Gm^S): 0.5 to 1 µg/mL (≈ 1.07 to 2.14 µM)
- MIC ([1]; MRSA AG040, strain 87-26S Gm^S): ≥ 256 µg/mL
- MIC ([1]; MRSA AG041, strain 98-25S Gm^S): 0.5 to 1 µg/mL (≈ 1.07 to 2.14 µM)
- MIC [1, 5]: ≥ 256 µg/mL
- MIC ([1]; MRSA AG043, strain 01-08R Gm^R): 32 µg/mL (≈ 68.4 µM)
- MIC ([1]; MRSA AG044, strain 07-12R Gm^R): 8 µg/mL (≈ 17.1 µM)
- MIC ([1]; MRSA AG045, strain 08-12R Gm^R): 8 µg/mL (≈ 17.1 µM)
- MIC ([1]; MRSA AG047, strain 18-06R Gm^R): ≥ 256 µg/mL
- MIC ([1]; MRSA AG048, strain 20-06R Gm^R): ≥ 256 µg/mL
- MIC ([1]; MRSA AG049, strain 23-12R Gm^R): 8 to 16 µg/mL (≈ 17.1 to 34.2 µM)
- MIC ([1]; MRSA AG050, strain 31-06R Gm^R): 32 to 64 µg/mL (≈ 68.4 to 137 µM)
- MIC ([1]; MRSA AG051, strain 36-06R Gm^R): 32 to 64 µg/mL (≈ 68.4 to 137 µM)
- MIC ([1]; MRSA AG052, strain 53-14I Gm^R): 8 to 16 µg/mL (≈ 17.1 to 34.2 µM)
- MIC ([1]; MRSA AG053, strain 56-06R Gm^R): 16 to 32 µg/mL (≈ 34.2 to 68.4 µM)
- MIC (E. coli; [6]): 4 to 8 µg/mL (≈ 8.56 to 17.1 µM)
- MIC (E. coli; [7]): 2 µg/mL (≈ 4.28 µM)
- MIC (E. coli; [8]): 32 µg/mL (≈ 68.4 µM)
- MIC (E. coli; E. coli AG06, BM13): 0.5 µg/mL (≈ 1.07 µM)
- MIC (E. coli; [9]): 4 µg/mL (≈ 8.56 µM)
- MIC (E. coli; [10]): 8 to 64 µg/mL (≈ 17.1 to 137 µM)
- MIC (E. coli; [11]): 64 to 128 µg/mL (≈ 137 to 274 µM)
- MIC (E. coli; [12]): 16 to 32 µg/mL (≈ 34.2 to 68.4 µM)
- MIC (E. coli; [13]): 1 to 2 µg/mL (≈ 2.14 to 4.28 µM)
- MIC, cytohybrid ribosomes (cytohybrid ribosomes): 512
- MIC, mitohybrid ribosomes (mitohybrid ribosomes): 128
- MIC (M. massiliense; [14]): 32 µg/mL (≈ 68.4 µM)
- MIC (M. massiliense; [15]): 16 µg/mL (≈ 34.2 µM)
- MIC (M. massiliense; [16]): 8 µg/mL (≈ 17.1 µM)
- MIC (M. bolletii; strain 179639/10 M. bolletii): 32 µg/mL (≈ 68.4 µM)
- MIC (M. bolletii; strain 181739/08 M. bolletii): 32 µg/mL (≈ 68.4 µM)
- MIC (M. bolletii; strain 183177/08 M. bolletii): 16 µg/mL (≈ 34.2 µM)
- MIC (M. abscessus): 4 µg/mL (≈ 8.56 µM)
- MIC, bacterial ribosomes (bacterial ribosomes): 1

SMILES: CNC1C(OC2OC(CO)C(N)C(O)C2O)OC2CC(N)C(OC3C(N)CC(N)C(O)C3O)OC2C1O (centres unmarked) [Apramycin]
- MIC ([1]; MRSA AG038, strain 70-26S Gm^S): 8 µg/mL (≈ 14.8 µM)
- MIC ([1]; MRSA AG040, strain 87-26S Gm^S): 8 µg/mL (≈ 14.8 µM)
- MIC ([1]; MRSA AG041, strain 98-25S Gm^S): 8 µg/mL (≈ 14.8 µM)
- MIC [1, 5]: 8 µg/mL (≈ 14.8 µM)
- MIC ([1]; MRSA AG043, strain 01-08R Gm^R): 16 to 32 µg/mL (≈ 29.7 to 59.3 µM)
- MIC ([1]; MRSA AG044, strain 07-12R Gm^R): 16 µg/mL (≈ 29.7 µM)
- MIC ([1]; MRSA AG045, strain 08-12R Gm^R): 8 to 16 µg/mL (≈ 14.8 to 29.7 µM)
- MIC ([1]; MRSA AG046, strain 12-06R Gm^R): 8 to 16 µg/mL (≈ 14.8 to 29.7 µM)
- MIC ([1]; MRSA AG047, strain 18-06R Gm^R): 8 to 16 µg/mL (≈ 14.8 to 29.7 µM)
- MIC ([1]; MRSA AG048, strain 20-06R Gm^R): 8 to 16 µg/mL (≈ 14.8 to 29.7 µM)
- MIC ([1]; MRSA AG049, strain 23-12R Gm^R): 8 to 16 µg/mL (≈ 14.8 to 29.7 µM)
- MIC ([1]; MRSA AG050, strain 31-06R Gm^R): 4 to 8 µg/mL (≈ 7.41 to 14.8 µM)
- MIC ([1]; MRSA AG051, strain 36-06R Gm^R): 8 µg/mL (≈ 14.8 µM)
- MIC ([1]; MRSA AG052, strain 53-14I Gm^R): 8 µg/mL (≈ 14.8 µM)
- MIC ([1]; MRSA AG053, strain 56-06R Gm^R): 8 µg/mL (≈ 14.8 µM)
- in vivo auditory response (auditory brain stem response, threshold shift at 12 kHz) [2]: substantially less affected
- MIC (E. coli; [6]): 16 µg/mL (≈ 29.7 µM)
- MIC (E. coli; [7]): 16 to 32 µg/mL (≈ 29.7 to 59.3 µM)
- MIC (E. coli; [8]): 16 to 32 µg/mL (≈ 29.7 to 59.3 µM)
- MIC (E. coli; E. coli AG06, BM13): 4 µg/mL (≈ 7.41 µM)
- MIC (E. coli; [9]): 8 µg/mL (≈ 14.8 µM)
- MIC (E. coli; [10]): 4 µg/mL (≈ 7.41 µM)
- MIC (E. coli; [11]): 8 µg/mL (≈ 14.8 µM)
- MIC (E. coli; [12]): 4 µg/mL (≈ 7.41 µM)
- MIC (E. coli; [13]): 4 µg/mL (≈ 7.41 µM)
- Activity (resistant/susceptible) (M. kansasii; strain 177227/06 M. kansasii, 1 μg/ml): R
- Activity (resistant/susceptible) (M. kansasii; strain 177227/06 M. kansasii, 4 μg/ml): S
- Activity (resistant/susceptible) (M. kansasii; strain 177227/06 M. kansasii, 10 μg/ml): S
- Activity (resistant/susceptible) (M. kansasii; strain 180235/06 M. kansasii, 1 μg/ml): R
- Activity (resistant/susceptible) (M. kansasii; strain 180235/06 M. kansasii, 4 μg/ml): S
- Activity (resistant/susceptible) (M. kansasii; strain 180235/06 M. kansasii, 10 μg/ml): S
- observations (general toxicity) ([3]; 152 mg/kg base (132 mg/kg gentamicin base equivalent)): normal weight gain
- observations (general toxicity) ([3]; 184 mg/kg base (160 mg/kg gentamicin base equivalent)): normal weight gain
- observations (general toxicity) ([3]; 217 mg/kg base (188 mg/kg gentamicin base equivalent)): normal weight gain
- observations (general toxicity) ([3]; 355 mg/kg base (309 mg/kg gentamicin base equivalent)): less weight gain
- Kidney histopathology, interpretation ([3]; 432 mg/kg): Mild, multifocal interstitial lymphoplasmacytic inflammation
- observations (general toxicity) ([3]; 432 mg/kg base (376 mg/kg gentamicin base equivalent)): less weight gain
- Kidney histopathology, renal mass affected in the sections ([3]; 432 mg/kg, lymphoplasmacytic aggregates in the renal interstitium): less than 5%
- Kidney histopathology, interpretation ([3]; 649 mg/kg): Mild, multifocal tubular nephrosis
- observations (general toxicity) ([3]; 649 mg/kg base (564 mg/kg gentamicin base equivalent)): less weight gain
- Kidney histopathology, renal mass affected in the sections ([3]; 649 mg/kg, foci of tubular degeneration and regeneration in the superficial cortex): less than 5%
- necropsy findings at the end of the experiment ([3]; one animal each at 432 and 649 mg/kg): no significant lesions or gross findings were observed
- MIC, cytohybrid ribosomes (cytohybrid ribosomes): >1024
- MIC, bacteria with cytohybrid ribosome (cytohybrid ribosomes; Table 10): >256.0 µg/mL
- In vitro cochleatoxicity (drug-induced hair cell loss in cochlear explants, dose-response) [4]: significantly less than that of gentamicin
- Hair cell count ([4]; mouse, 24 h, 0.5 mM): no hair cells missing (<5%)
- inner and outer hair cells missing / lost ([4]; mouse, 24 h, 0.5 mM): < 5%
- MIC, mitohybrid ribosomes (mitohybrid ribosomes): 1024
- MIC, bacteria with mitohybrid ribosome (mitohybrid ribosomes; Table 10): >256.0 µg/mL
- MIC (M. massiliense; [14]): 4 µg/mL (≈ 7.41 µM)
- MIC (M. massiliense; [15]): 4 µg/mL (≈ 7.41 µM)
- MIC (M. massiliense; [16]): 2 µg/mL (≈ 3.71 µM)
- MIC (M. bolletii; strain 179639/10 M. bolletii): 4 µg/mL (≈ 7.41 µM)
- MIC (M. bolletii; strain 181739/08 M. bolletii): 4 µg/mL (≈ 7.41 µM)
- MIC (M. bolletii; strain 183177/08 M. bolletii): 2 µg/mL (≈ 3.71 µM)
- MIC (M. abscessus): 0.5 µg/mL (≈ 0.927 µM)
- MIC, bacterial ribosomes (bacterial ribosomes): 1-2
- MIC, wild type bacteria (bacterial ribosomes; Table 10): 1.0 to 2.0 µg/mL
- Activity (resistant/susceptible) (M. avium-intracellulare; strain 182034/06 M. avium-intracellulare, 1 μg/ml): R
- Activity (resistant/susceptible) (M. avium-intracellulare; strain 182034/06 M. avium-intracellulare, 4 μg/ml): S
- Activity (resistant/susceptible) (M. avium-intracellulare; strain 182034/06 M. avium-intracellulare, 10 μg/ml): S
- Activity (resistant/susceptible) (M. avium-intracellulare; strain 182124/07 M. avium-intracellulare, 1 μg/ml): R
- Activity (resistant/susceptible) (M. avium-intracellulare; strain 182124/07 M. avium-intracellulare, 4 μg/ml): S
- Activity (resistant/susceptible) (M. avium-intracellulare; strain 182124/07 M. avium-intracellulare, 10 μg/ml): S
- Activity (resistant/susceptible) (M. avium-intracellulare; strain 182550/07 M. avium-intracellulare, 1 μg/ml): R
- Activity (resistant/susceptible) (M. avium-intracellulare; strain 182550/07 M. avium-intracellulare, 4 μg/ml): S
- Activity (resistant/susceptible) (M. avium-intracellulare; strain 182550/07 M. avium-intracellulare, 10 μg/ml): S
